# Test results reported in patent publication US11992473B2, “Compositions and methods for diagnosis and treatment of conditions related to the quality of aging and longevity” (Epitracker, Inc., priority 2018, dated 2024).
# Columns and labels:
# Dermal fibroblasts = assay: BioMAP Diversity PLUS HDF3CGF system (wound healing and matrix/tissue remodeling); format: cell-based, human
# Procedure: (§1) This study examined activities of small molecules discovered in dolphin serum that had protective profiles against diseases of aging which can impact quality of life and longevity. These molecules were tested across 12 human primary cell-based systems as part of DiscoverX's BioMAP Diversity Plus program. These systems are designed to model complex human tissue and disease biology of the vasculature, skin, lung, and inflammatory tissues. Quantitative measurements of biomarker activities across this broad panel, along with comparative analysis of biological activities of known bioactive agents were used to predict and compare the efficacy and function of the four compounds. Compounds were tested at four concentrations (740 nm and 2.2, 6.7 and 20 μM).
# (§2) BioMAP panels consist of human primary cell-based systems designed to model different aspects of the human body in an in vitro format. The 12 systems in the Diversity PLUS panel allow test agent characterization in an unbiased way across a broad set of systems modeling various human disease states. BioMAP systems are constructed with one or more primary cell types from healthy human donors, with stimuli (such as cytokines or growth factors) added to capture relevant signaling networks that naturally occur in human tissue or pathological conditions. Vascular biology is modeled in both a Th1 (3C system) and a Th2 (4H system) inflammatory environment, as well as in a Th1 inflammatory state specific to arterial smooth muscle cells (CASM3C system). Additional systems recapitulate aspects of the systemic immune response including monocyte-driven Th1 inflammation (LPS system) or T cell stimulation (SAg system), chronic Th1 inflammation driven by macrophage activation (lMphg system) and the T cell-dependent activation of B cells that occurs in germinal centers (BT system). The BE3C system (Th1) and the BF4T system (Th2) represent airway inflammation of the lung, while the MyoF system models myofibroblast-lung tissue remodeling. Lastly, skin biology is addressed in the KF3CT system modeling Th1 cutaneous inflammation and the HDF3CGF system modeling wound healing.
# (§3) Each test agent generates a signature BioMAP profile that is created from the changes in protein biomarker readouts within individual system environments. Biomarker readouts (7-17 per system) are selected for therapeutic and biological relevance, are predictive for disease outcomes or specific drug effects and are validated using agents with known mechanism of action (MoA). Each readout is measured quantitatively by immune-based methods that detect protein (e.g., ELISA) or functional assays that measure proliferation and viability. BioMAP readouts are diverse and include cell surface receptors, cytokines, chemokines, matrix molecules and enzymes.
# (§4) The Diversity PLUS panel allows test agent characterization in an unbiased way across a broad set of systems modeling various human disease states. These systems are designed to model complex human tissue and disease biology of the vasculature, skin, lung, and inflammatory tissues.
# (§5) BioMAP systems are constructed with one or more primary cell types from healthy human donors, with stimuli (such as cytokines or growth factors) added to capture relevant signaling networks that naturally occur in human tissue or pathological conditions. Vascular biology is modeled in both a Th1 (3C system) and a Th2 (4H system) inflammatory environment, as well as in a Th1 inflammatory state specific to arterial smooth muscle cells (CASM3C system). Additional systems recapitulate aspects of the systemic immune response including monocyte-driven Th1 inflammation (LPS system) or T cell stimulation (SAg system), chronic Th1 inflammation driven by macrophage activation (lMphg system) and the T cell-dependent activation of B cells that occurs in germinal centers (BT system).
# [1] = test system: Venular endothelial cells, peripheral blood mononuclear cells; assay: BioMAP Diversity PLUS SAg system (T cell stimulation, Th1 type chronic inflammation); format: cell-based, human
# Procedure: as §1, §2
# as §3, with “enzymes. In total, the Diversity PLUS panel contains 148 biomarker readouts that capture biological changes that occur within the physiological context of the particular BioMAP system. Specific BioMAP activities have been correlated to in vivo biology, and multiparameter BioMAP profiles have been used to distinguish compounds based on MoA and target selectivity across diverse physiological systems.” for “enzymes.”
# (§6) The Diversity PLUS panel allows test agent characterization in an unbiased way across a broad set of systems modeling various human disease states. These systems are designed to model complex human tissue and disease biology of the vasculature, skin, lung, and inflammatory tissues. Quantitative measurements of 148 biomarker activities across this broad panel, along with comparative analysis of biological activities from known bioactive agents, were used to predict and compare the efficacy and function of each selected compound at four concentrations (740 nm and 2.2, 6.7 and 20 μM). […]
# [2] = test system: Peripheral blood mononuclear cells, B cells; assay: BioMAP Diversity PLUS BT system (T cell dependent B cell activation); format: cell-based, human; conditions: BT system
# Procedure: as §1, §2, §3, §4, §5
# [3] = white powder; room temperature; cited from earlier work
# [4] = test system: Keratinocytes, dermal fibroblasts; assay: BioMAP Diversity PLUS KF3CT system (Th1 type cutaneous inflammation); format: cell-based, human
# Procedure: as §1
# BioMAP panels consist of human primary cell-based systems designed to model different aspects of the human body in an in vitro format. The 12 systems in the Diversity PLUS panel allow test agent characterization in an unbiased way across a broad set of systems modeling various human disease states. […]
# as §3, with “enzymes. In total, the Diversity PLUS panel contains 148 biomarker readouts that capture biological changes that occur within the physiological context of the particular BioMAP system. […]” for “enzymes.”
# [5] = test system: Venular endothelial cells; assay: BioMAP Diversity PLUS 4H system (Th2 type vascular inflammation); format: cell-based, human; conditions: 6.7 μM
# Procedure: as §1, with “Compounds were tested at four concentrations (740 nm and 2.2, 6.7 and 20 μM).” left out
# as §3, with “enzymes. […]” for “enzymes.”
# [6] = test system: Macrophages, venular endothelial cells; assay: BioMAP Diversity PLUS lMphg system (Th1 type chronic inflammation, macrophage activation); format: cell-based, human; conditions: /Mphg system
# Procedure: as §1, §2
# as §3, with “enzymes. In total, the Diversity PLUS panel contains 148 biomarker readouts that capture biological changes that occur within the physiological context of the particular BioMAP system. Specific BioMAP activities have been correlated to in vivo biology, and multiparameter BioMAP profiles have been used to distinguish compounds based on MoA and target selectivity across diverse physiological systems.” for “enzymes.”
# as §6
# [7] = test system: Bronchial epithelial cells; assay: BioMAP Diversity PLUS BE3C system (Th1 type lung inflammation); format: cell-based, human
# Procedure: as §1, §2
# as §3, with “enzymes. In total, the Diversity PLUS panel contains 148 biomarker readouts that capture biological changes that occur within the physiological context of the particular BioMAP system. Specific BioMAP activities have been correlated to in vivo biology, and multiparameter BioMAP profiles have been used to distinguish compounds based on MoA and target selectivity across diverse physiological systems.” for “enzymes.”
# as §6
# Lung fibroblasts = assay: BioMAP Diversity PLUS MyoF system (myofibroblast differentiation and tissue remodeling); format: cell-based, human
# Procedure: as §1, §2
# as §3, with “enzymes. In total, the Diversity PLUS panel contains 148 biomarker readouts that capture biological changes that occur within the physiological context of the particular BioMAP system. Specific BioMAP activities have been correlated to in vivo biology, and multiparameter BioMAP profiles have been used to distinguish compounds based on MoA and target selectivity across diverse physiological systems.” for “enzymes.”
# as §6
structure (smiles),measurement,setting,value
N[C@@H](CC(O)C(=O)O)C(=O)O (some centres unmarked) [4-hydroxyglutamate],decorin,"Dermal fibroblasts; human cell system mimicking wound healing, remodeling, fibrosis and chronic inflammation (FIG. 7)",inhibitory activity
same,Significant log10 reduction compared to nontreated controls: T cell proliferation,"[1]; SAg system, 0.7 μM",−0.08 log10
same,Significant log10 reduction compared to nontreated controls: T cell proliferation,"[1]; SAg system, 2.2 μM",−0.09 log10
same,Significant log10 reduction compared to nontreated controls: T cell proliferation,"[1]; SAg system, 6.7 μM",−0.18 log10
same,T cell proliferation,"[1]; human cell system mimicking T-cell driven chronic inflammation and autoimmune diseases, concentrations ranging from 740 nm to 6.7 μM (FIG. 2)",decreased
same,Significant log10 reduction compared to nontreated controls: Secreted interleukin 17F (IL-17F),[2]; 0.7 μM,−0.16 log10
same,stability of the pure or purified metabolite,[3],stable at room temperature
"CCCCCCCCCCCCCCC(=O)O[C@H](CC(=O)[O-])C[N+](C)(C)C [Pentadecanoylcarnitine (C15), pentadecanoylcarnitine]",Significant log10 reduction compared to nontreated controls: Matrix metalloproteinase 1 (MMP-1),"Dermal fibroblasts; HDF3CGF system, 6.7 μM",−0.12 log10
same,Significant log10 reduction compared to nontreated controls: Interferon gamma-induced protein 10 (IP-10)/CXCL10,[4]; 0.7 μM,−0.14 log10
same,Significant log10 reduction compared to nontreated controls: Interferon gamma-induced protein 10 (IP-10)/CXCL10,[4]; 2.2 μM,−0.09 log10
same,Significant log10 reduction compared to nontreated controls: Interferon gamma-induced protein 10 (IP-10)/CXCL10,[4]; 6.7 μM,−0.10 log10
same,Significant log10 reduction compared to nontreated controls: E-selectin,"[1]; SAg system, 6.7 μM",−0.11 log10
same,Significant log10 reduction compared to nontreated controls: T cell proliferation,"[1]; SAg system, 6.7 μM",−0.17 log10
same,Significant log10 reduction compared to nontreated controls: Vascular endothelial growth factor s (VEGFR2),[5],−0.11 log10
same,Significant log10 reduction compared to nontreated controls: Monocyte chemoattractant protein 1 (MCP-1),[6]; 2.2 μM,−0.17 log10
same,Significant log10 reduction compared to nontreated controls: Monocyte chemoattractant protein 1 (MCP-1),[6]; 6.7 μM,−0.25 log10
same,Significant log10 reduction compared to nontreated controls: Secreted interleukin 10 (IL-10),[6]; 6.7 μM,−0.13 log10
same,Significant log10 reduction compared to nontreated controls: Interferon-inducible T cell alpha chemoattractant (I-TAC)/CXCL11,[7]; 0.7 μM,−0.13 log10
same,Significant log10 reduction compared to nontreated controls: Interleukin 1 alpha (IL-1α),[7]; 0.7 μM,−0.06 log10
same,Significant log10 reduction compared to nontreated controls: Interferon-inducible T cell alpha chemoattractant (I-TAC)/CXCL11,[7]; 2.2 μM,−0.17 log10
same,Significant log10 reduction compared to nontreated controls: Interleukin 1 alpha (IL-1α),[7]; 2.2 μM,−0.06 log10
same,Significant log10 reduction compared to nontreated controls: Matrix metalloproteinase 1 (MMP-1),[7]; 2.2 μM,−0.05 log10
same,Significant log10 reduction compared to nontreated controls: Matrix metalloproteinase 9 (MMP-9),[7]; 2.2 μM,−0.08 log10
same,Significant log10 reduction compared to nontreated controls: Plasminogen activation inhibitor 1 (PAI-1),[7]; 2.2 μM,−0.08 log10
same,Significant log10 reduction compared to nontreated controls: Tissue plasminogen activator (tPA),[7]; 2.2 μM,−0.11 log10
same,Significant log10 reduction compared to nontreated controls: Human leukocyte antigen-DR isotype (HLA-DR),[7]; 6.7 μM,−0.63 log10
same,Significant log10 reduction compared to nontreated controls: Interferon gamma-induced protein 10 (IP-10)/CXCL10,[7]; 6.7 μM,−0.1 log10
same,Significant log10 reduction compared to nontreated controls: Interferon-inducible T cell alpha chemoattractant (I-TAC)/CXCL11,[7]; 6.7 μM,−0.54 log10
same,Significant log10 reduction compared to nontreated controls: Interleukin 1 alpha (IL-1α),[7]; 6.7 μM,−0.19 log10
same,Significant log10 reduction compared to nontreated controls: Interleukin 8 (IL-8)/CXCL8,[7]; 6.7 μM,−0.21 log10
same,Significant log10 reduction compared to nontreated controls: Matrix metalloproteinase 1 (MMP-1),[7]; 6.7 μM,−0.27 log10
same,Significant log10 reduction compared to nontreated controls: Matrix metalloproteinase 9 (MMP-9),[7]; 6.7 μM,−0.34 log10
same,Significant log10 reduction compared to nontreated controls: Monokine induced by gamma interferon (MIG)/CXCL9,[7]; 6.7 μM,−0.60 log10
same,Significant log10 reduction compared to nontreated controls: Plasminogen activation inhibitor 1 (PAI-1),[7]; 6.7 μM,−0.24 log10
same,Significant log10 reduction compared to nontreated controls: Tissue plasminogen activator (tPA),[7]; 6.7 μM,−0.43 log10
same,Significant log10 reduction compared to nontreated controls: Alpha smooth muscle actin (αSMA),Lung fibroblasts; 0.7 μM,−0.16 log10
same,Significant log10 reduction compared to nontreated controls: Alpha smooth muscle actin (αSMA),Lung fibroblasts; 2.2 μM,−0.18 log10
same,Significant log10 reduction compared to nontreated controls: Alpha smooth muscle actin (αSMA),Lung fibroblasts; 6.7 μM,−0.26 log10
same,Significant log10 reduction compared to nontreated controls: Secreted interleukin 2 (IL-2),[2]; 2.2 μM,−0.11 log10
same,Significant log10 reduction compared to nontreated controls: Secreted interleukin 6 (IL-6),[2]; 6.7 μM,−0.13 log10
same,Significant log10 reduction compared to nontreated controls: Tumor necrosis factor alpha (TNFα),[2]; 6.7 μM,−0.10 log10
